“Also recorded” adds a separate entry of the source.
Legend:
[1] = target: MK-801 binding site of the N-methyl-D-aspartate receptor (NMDAR); test: NMDAR radioligand binding with [3H]MK-801, Method A; parameters: species or system Wistar rat; conditions: for Ki: MK-801 site, Method A, Wistar rat brain (minus cerebellum), 5.0 nM [3H]MK-801, read-out: NMDAR Ki ± SEM
Method: Radioligand Binding—Method A. Affinity of the test compounds for NMDAR was determined in radioligand binding experiments with [^3H]MK-801 by Eurofins Panlabs, Inc., using methods adapted from the literature (Javitt et al. 1987; Reynolds et al. 1989) and under the conditions described in Table 12.

CSDS-susceptible mice = test: Behavioral tests after chronic social defeat stress (CSDS); type: in vivo, C57BL/6 mice; conditions: 14.4 mg/kg i.p. as hydrogen tartrate salts
[2] = target: MK-801 binding site of the N-methyl-D-aspartate receptor (NMDAR); test: NMDAR radioligand binding with [3H]MK-801, Method B; parameters: species or system Sprague Dawley rat; conditions: MK-801 site, Method B, male Sprague Dawley rat cortex, 5.0 nM [3H]MK-801; read-out: NMDAR Ki ± SEM
Method: Radioligand Binding—Method B. Affinity of the test compounds for NMDAR was determined in radioligand binding experiments with [^3H]MK-801 by WuXi AppTec (Hong Kong) Limited, under the conditions described in Table 13.

[3] = target: T1, norepinephrine transporter (NET) (Homo sapiens, UniProt P23975); test: Fluorescent substrate uptake inhibition, NET; type: cell-based; conditions: for inhibition at 10 µM: HEK293 cells expressing NET
T1 construct: expressed in transfected cells; host or cells: HEK293
T1 sequence (P23975 whole entry, species assumed): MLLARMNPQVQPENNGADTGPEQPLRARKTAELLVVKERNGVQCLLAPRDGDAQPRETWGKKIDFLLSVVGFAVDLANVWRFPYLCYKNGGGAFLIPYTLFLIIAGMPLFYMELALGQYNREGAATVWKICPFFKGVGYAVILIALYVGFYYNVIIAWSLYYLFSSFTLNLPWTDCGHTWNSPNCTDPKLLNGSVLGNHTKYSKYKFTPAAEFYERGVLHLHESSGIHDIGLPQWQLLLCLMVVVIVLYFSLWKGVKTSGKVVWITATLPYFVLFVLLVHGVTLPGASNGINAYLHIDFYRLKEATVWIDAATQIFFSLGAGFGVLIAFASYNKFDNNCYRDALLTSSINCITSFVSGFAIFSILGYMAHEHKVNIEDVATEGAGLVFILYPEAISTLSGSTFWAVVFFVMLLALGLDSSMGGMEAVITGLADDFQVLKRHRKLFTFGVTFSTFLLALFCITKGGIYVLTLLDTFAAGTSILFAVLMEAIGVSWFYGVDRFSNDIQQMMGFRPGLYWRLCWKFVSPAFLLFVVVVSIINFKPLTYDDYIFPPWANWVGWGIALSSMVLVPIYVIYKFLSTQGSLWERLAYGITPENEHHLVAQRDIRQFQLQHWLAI

SERT = target: T2, SERT (Homo sapiens, UniProt P31645); test: SERT radioligand binding with [3H]imipramine
T2 construct: expressed in transfected cells; host or cells: HEK293
T2 sequence (P31645 whole entry, species assumed): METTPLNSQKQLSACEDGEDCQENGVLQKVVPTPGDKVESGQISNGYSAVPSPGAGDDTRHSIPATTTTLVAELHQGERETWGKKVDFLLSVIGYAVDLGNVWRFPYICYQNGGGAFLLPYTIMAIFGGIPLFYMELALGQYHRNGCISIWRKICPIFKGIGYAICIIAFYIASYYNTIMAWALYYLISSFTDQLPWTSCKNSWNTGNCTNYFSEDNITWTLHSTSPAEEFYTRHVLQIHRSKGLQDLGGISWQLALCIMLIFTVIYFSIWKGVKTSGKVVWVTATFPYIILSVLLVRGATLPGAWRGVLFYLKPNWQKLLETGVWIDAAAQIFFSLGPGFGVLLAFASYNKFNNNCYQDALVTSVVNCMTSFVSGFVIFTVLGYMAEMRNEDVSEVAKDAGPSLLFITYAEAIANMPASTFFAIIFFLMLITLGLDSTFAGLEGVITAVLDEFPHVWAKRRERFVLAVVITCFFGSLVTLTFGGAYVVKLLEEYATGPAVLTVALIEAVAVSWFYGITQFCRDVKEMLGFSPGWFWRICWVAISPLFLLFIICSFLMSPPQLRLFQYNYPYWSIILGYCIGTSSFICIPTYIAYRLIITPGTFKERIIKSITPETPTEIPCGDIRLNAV
Method: (§1) Radioligand Binding. Affinity of the test compounds for SERT, NET, and DAT was determined in radioligand binding experiments with [^3H]imipramine, [^3]nisoxetine, and [^3H]WIN35,428, respectively, by WuXi AppTec (Hong Kong) Limited, under the conditions described in Table 15.

[4] = target: T3, dopamine transporter (DAT) (Homo sapiens, UniProt Q01959); test: Fluorescent substrate uptake inhibition, DAT; type: cell-based; conditions: for inhibition at 10 µM: CHO cells expressing DAT; for inhibitory activity at DAT: in words
T3 construct: expressed in transfected cells; host or cells: CHO (uptake)
T3 sequence (Q01959 whole entry, species assumed): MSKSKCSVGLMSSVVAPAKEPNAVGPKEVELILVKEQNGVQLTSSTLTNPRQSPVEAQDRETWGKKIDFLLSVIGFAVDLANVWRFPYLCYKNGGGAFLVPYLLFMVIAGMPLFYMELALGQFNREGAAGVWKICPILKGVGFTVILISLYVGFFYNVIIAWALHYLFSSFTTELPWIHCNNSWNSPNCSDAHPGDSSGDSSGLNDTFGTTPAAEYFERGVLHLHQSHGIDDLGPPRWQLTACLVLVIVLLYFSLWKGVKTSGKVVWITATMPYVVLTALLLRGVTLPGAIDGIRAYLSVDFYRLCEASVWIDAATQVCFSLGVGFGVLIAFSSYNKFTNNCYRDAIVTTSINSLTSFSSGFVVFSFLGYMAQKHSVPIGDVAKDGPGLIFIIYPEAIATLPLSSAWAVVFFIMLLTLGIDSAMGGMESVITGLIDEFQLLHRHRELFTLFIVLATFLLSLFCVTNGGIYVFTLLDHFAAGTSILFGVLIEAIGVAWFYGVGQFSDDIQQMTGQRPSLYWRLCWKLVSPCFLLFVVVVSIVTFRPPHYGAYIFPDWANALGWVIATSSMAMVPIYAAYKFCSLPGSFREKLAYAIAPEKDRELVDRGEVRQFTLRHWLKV

DAT = target: T4, DAT (Homo sapiens, UniProt Q01959); test: DAT radioligand binding with [3H]WIN35,428
T4 construct: expressed in transfected cells; host or cells: CHO (uptake)
T4 sequence (Q01959 whole entry, species assumed): as above
Method: as §1

[5] = HLM stability (High Activity); type: in vitro ADME; conditions: both sexes, human, liver microsomes, pH 7.4, Condition 2 (High Activity), 1.0 mg protein/mL
How it was run: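 Pooled male and female human liver microsomes, 1.0 mg protein/mL, in 100 mM PBS pH 7.4 with NADPH-regenerating system; compound 1 μM at 37° C, five time points over 60 min. Parent remaining by LC-MS/MS; kel, t1/2 and Clint from linear regression of ln(AUC) versus time.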

NET = target: T5, NET (Homo sapiens, UniProt P23975); test: NET radioligand binding with [3H]nisoxetine
T5 construct: expressed in transfected cells; host or cells: HEK293
T5 sequence (P23975 whole entry, species assumed): as the sequence (P23975 whole entry, species assumed) above
Method: as §1

[6] = target: T6, vesicular monoamine transporter 2 (VMAT2) (Homo sapiens, UniProt Q05940); test: Fluorescent substrate uptake inhibition, VMAT2; type: cell-based; conditions: 10 μM, transfected cells
T6 construct: expressed in transfected cells
T6 sequence (Q05940 whole entry, species assumed): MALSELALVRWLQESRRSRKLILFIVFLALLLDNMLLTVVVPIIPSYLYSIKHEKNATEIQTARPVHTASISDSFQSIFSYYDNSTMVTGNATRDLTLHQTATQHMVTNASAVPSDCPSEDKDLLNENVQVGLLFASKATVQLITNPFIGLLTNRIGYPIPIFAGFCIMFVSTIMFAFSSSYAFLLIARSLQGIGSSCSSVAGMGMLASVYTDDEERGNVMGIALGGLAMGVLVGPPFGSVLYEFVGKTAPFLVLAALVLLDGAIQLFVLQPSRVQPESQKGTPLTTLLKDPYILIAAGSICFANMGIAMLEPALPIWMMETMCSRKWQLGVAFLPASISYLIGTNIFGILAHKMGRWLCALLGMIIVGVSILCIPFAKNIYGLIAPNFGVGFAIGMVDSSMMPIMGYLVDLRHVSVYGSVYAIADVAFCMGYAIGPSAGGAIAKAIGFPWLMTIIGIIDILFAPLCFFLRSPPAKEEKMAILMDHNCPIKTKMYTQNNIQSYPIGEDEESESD

[7] = target: T7, serotonin transporter (SERT) (Homo sapiens, UniProt P31645); test: Fluorescent substrate uptake inhibition, SERT; type: cell-based; conditions: for inhibition at 10 µM: HEK293 cells expressing SERT
T7 construct: expressed in transfected cells; host or cells: HEK293
T7 sequence (P31645 whole entry, species assumed): as the sequence (P31645 whole entry, species assumed) above

[8] = MLM stability (High Activity); type: in vitro ADME, BALB/c mice; conditions: male, BALB/c, mouse, liver microsomes, pH 7.4, Condition 2 (High Activity), 1.0 mg protein/mL
Method: MLM Stability (High Activity). Pooled MLM from male BALB/c mice (XenoTech M3000) were used. Microsomal incubations were carried out in 96-well plates in 5 aliquots of 40 μL each (one for each time point). Liver microsomal incubation medium consisted of PBS (100 mM, pH 7.4), MgCl2 (3.3 mM), NADPH (3 mM), glucose-6-phosphate (5.3 mM), and glucose-6-phosphate dehydrogenase (0.67 units/mL), with 1.0 mg of liver microsomal protein per mL. Control incubations were performed by replacing the NADPH-cofactor system with PBS. Test compounds (1 μM, final solvent concentration 1.6%) were incubated with microsomes at 37° C., shaking at 100 rpm. Incubations were performed in duplicate. Five time points over 60 minutes were analyzed. The reactions were stopped by adding 9 volumes of 90% acetonitrile-water to incubation aliquots, followed by protein sedimentation by centrifugation at 5500 rpm for 3 minutes. Supernatants were analyzed for parent compound remaining using a fit-for-purpose liquid chromatography-tandem mass spectrometry (LC-MS/MS) method, with authentic samples of each analyte used for identity confirmation.
Data Analysis. The elimination constant (kel), half-life (t1/2) and intrinsic clearance (Clint) were determined in a plot of […] versus time, using linear regression analysis.

[9] = MLM stability (Low Activity); type: in vitro ADME, CD-1 mice; conditions: male, CD-1, mouse, liver microsomes, pH 7.4, Condition 1 (Low Activity), 0.50 mg protein/mL
How it was run: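 Pooled male CD-1 mouse liver microsomes (0.50 mg/mL) with 1 μM compound and 1 mM NADPH in 100 mM PBS pH 7.4 with 1 mM MgCl2, 37 °C, six time points over 60 min. Parent remaining by LC-MS/MS; kel, t1/2 and Clint from linear regression of ln(AUC) versus time.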

[10] = HLM stability (Low Activity, Alternative Method); type: in vitro ADME; conditions: both sexes, human, liver microsomes, pH 7.4, Condition 1 column, values marked *: Low Activity, 0.50 mg protein/mL
How it was run: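 Pooled male and female human liver microsomes (0.50 mg/mL) in 100 mM PBS pH 7.4 with 1 mM MgCl2 and 1 mM NADPH, compound 1 μM (1.0% solvent), 37° C with shaking, six time points over 60 min. Parent remaining measured by LC-MS/MS; kel, t1/2 and Clint from linear regression of ln(AUC) versus time.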

[11] = RLM stability (Low Activity); type: in vitro ADME, Sprague Dawley rats; conditions: male, Sprague Dawley, rat, liver microsomes, pH 7.4, Condition 1 (Low Activity), 0.50 mg protein/mL
How it was run: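 Pooled male Sprague Dawley rat liver microsomes (0.50 mg/mL) in PBS pH 7.4 with 1 mM MgCl2 and 1 mM NADPH; compound 1 μM, 1.0% solvent, 37° C. Six time points over 60 min, parent remaining by LC-MS/MS; kel, t1/2 and Clint from linear regression of ln(AUC) versus time.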

Row | Structure (SMILES) | Ki [1] [µM] | antidepressant-like activity in behavioral tests after CSDS (TST, FST, SPT) (CSDS-susceptible mice) | Ki [2] [µM] | IC50 [3] [µM] | inhibition at 10 µM [3] [%] | Ki (SERT) [µM] | IC50 [4] [µM] | inhibition at 10 µM [4] [%] | Ki (DAT) [µM] | half-life at 1 μM [5] [min] | microsomal CLint at 1 μM [5] [µL/min/mg] | Ki (NET) [µM] | inhibition at 10 µM [6] [%] | IC50 [7] [µM] | inhibition at 10 µM [7] [%] | half-life at 1 μM [8] [min] | microsomal CLint at 1 μM [8] [µL/min/mg] | inhibitory activity at DAT [4] | other results
1 | CN[C@@]1(c2ccccc2F)CCCCC1=O [Compound 35R, (R)-2-(2-Fluorophenyl)-2-(methylamino)cyclohexan-1-one] | 3.91 ± 0.4 | induced antidepressant-like effects; also recorded: more robust and longer lasting |  |  |  |  |  |  |  |  |  |  |  |  |  |  |  |  | NMDAR binding, comparison in words ([1]; vs 35S, 35rac, racemic ketamine and R-ketamine): weaker NMDAR binding
2 | O=C1CCCC[C@@]1(c1ccccc1)N1CCCCC1 [Compound 26S, (S)-2-phenyl-2-(piperidin-1-yl)cyclohexan-1-one] |  |  | 0.52 | 8.9 | 16.1 | 8.2 | 16.4 | 33.7 | 79.5 | 101 | 7 | > 87.4 | 22.9 | 44 | 43 | 12.3 | 56 |  | 
3 | O=C1CCCC[C@]1(c1ccccc1)N1CCCCC1 [Compound 26R, (R)-2-phenyl-2-(piperidin-1-yl)cyclohexan-1-one] |  |  | 3.7 | 23.7 | 19.5 | 22.5 | 5 | 58 | 70.4 | 63.2 | 11 | > 87.4 | -12.3 | > 100 | 30.4 | 10.6 | 65 | significant inhibitory activity at DAT | 
4 | CC(C)N[C@]1(c2ccccc2)CCCCC1=O [Compound 28S, (S)-2-(isopropylamino)-2-phenylcyclohexan-1-one] |  |  | 3 | 4.7 | 48.7 | 12.3 | 1.3 | 58 | 6 |  |  | 13.5 | -32.7 | 8.5 | 22 |  |  | significant inhibitory activity at DAT | half-life at 1 μM [9]: 14.8 min; microsomal CLint at 1 μM [9]: 94 µL/min/mg; half-life at 1 μM [10]: 76.6 min; microsomal CLint at 1 μM [10]: 18.1 µL/min/mg; half-life at 1 μM [11]: 18.9 min; microsomal CLint at 1 μM [11]: 73.4 µL/min/mg
5 | CN[C@]1(c2ccccc2F)CCCCC1=O [Compound 35S, (S)-2-(2-Fluorophenyl)-2-(methylamino)cyclohexan-1-one] | 0.79 ± 0.21 | induced antidepressant-like effects |  |  |  |  |  |  |  |  |  |  |  |  |  |  |  |  | 
